Usually EC50 stands for the concentration at which the effect is half-maximal. In general, IC50 refers to the concentration that gives 50% inhibition. By AC50 is commonly meant the concentration giving half of the maximal activity seen.

Series [1] relates to BJ. Put plainly: cytotoxicity toward BJ-TERT-LT-ST fibroblasts, dose response, cell-based, RAS-independent, luminescence (AID 1935).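 Also: BJ fibroblasts immortalized with TERT plus LT and ST oncogenes.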 The conditions noted are these: Homo sapiens. Format: functional.
The nature of series [2]: inhibitors of firefly luciferase expression or activity, dose response, H4 neuroglioma cells, luminescence (AID 1990). Format: functional, cell-based.
The subject of series [3] is BJ. In words: cells. Format: functional, cell-based. The conditions noted are these: Homo sapiens.
The test system of series [4] is BJ. Put plainly: cytotoxicity toward BJ-TERT fibroblasts, dose response, cell-based, RAS-independent, luminescence (AID 1933). Format: functional. The settings on record: Homo sapiens.
Series [5] can be described thus: Luminescence Cell-Based Dose Response HTS to Identify Inhibitors of 5'UTR Stem-Loop Driven Prion Protein mRNA Translation in H4 Neuroglioblastoma Cells. [Related pubchem assays: 1827 (Project Summary), 1813 (Primary HTS)]. Format: functional.
Series [6] is described as follows: inhibitors of SNCA 5'UTR-driven reporter translation, confirmation, H4 neuroglioma cells, luminescence (AID 1988). Format: functional, cell-based.
Series [7] is described as follows: cytotoxicity toward DRD oncogenic fibroblasts, dose response, cell-based, non-viral oncogenic, luminescence (AID 1934). The conditions noted are these: Homo sapiens. Format: functional.
Series [8] concerns the target Glyceraldehyde-3-phosphate dehydrogenase (Homo sapiens, UniProt P04406).
Series [9] concerns the target T1, Alkaline phosphatase, tissue-nonspecific isozyme (Homo sapiens, UniProt P05186).
T1 sequence (P05186 whole entry): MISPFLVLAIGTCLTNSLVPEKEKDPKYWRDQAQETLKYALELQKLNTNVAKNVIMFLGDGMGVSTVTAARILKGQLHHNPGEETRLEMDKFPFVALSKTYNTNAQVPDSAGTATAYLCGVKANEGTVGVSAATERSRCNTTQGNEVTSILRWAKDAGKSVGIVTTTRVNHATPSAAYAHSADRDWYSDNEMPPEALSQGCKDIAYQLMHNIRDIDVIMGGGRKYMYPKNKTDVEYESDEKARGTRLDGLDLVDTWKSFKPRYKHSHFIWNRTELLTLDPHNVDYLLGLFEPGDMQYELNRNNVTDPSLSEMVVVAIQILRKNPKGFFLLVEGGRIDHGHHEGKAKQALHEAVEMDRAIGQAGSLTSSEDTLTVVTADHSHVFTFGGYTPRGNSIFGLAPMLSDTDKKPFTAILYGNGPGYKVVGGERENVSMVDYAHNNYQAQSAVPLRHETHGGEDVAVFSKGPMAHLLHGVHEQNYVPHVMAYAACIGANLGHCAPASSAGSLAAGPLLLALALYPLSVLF
In words: human TNAP enzyme inhibitors, SAR follow-up, biochemical, luminescent, dose response (AID 1056).

Series [10] can be described thus: Luminescence Cell-Based Dose Response HTS to Identify Activators of Luciferase Translation or Activity in H4 […] Cells. [Related pubchem assays: 1829 (Project Summary), 1814 (Primary HTS)]. Format: functional.
Another series deals with Cytochrome P450 2C19 (Homo sapiens, UniProt P33261). Put plainly: Cytochrome panel assay with activity outcomes. Panel member name: p450-cyp2c19 Compounds with AC50 equal or less than 10 uM are considered active. Format: functional. The settings on record: read-out: AC50.
Cytochrome P450 2C19, sequence (P33261 whole entry): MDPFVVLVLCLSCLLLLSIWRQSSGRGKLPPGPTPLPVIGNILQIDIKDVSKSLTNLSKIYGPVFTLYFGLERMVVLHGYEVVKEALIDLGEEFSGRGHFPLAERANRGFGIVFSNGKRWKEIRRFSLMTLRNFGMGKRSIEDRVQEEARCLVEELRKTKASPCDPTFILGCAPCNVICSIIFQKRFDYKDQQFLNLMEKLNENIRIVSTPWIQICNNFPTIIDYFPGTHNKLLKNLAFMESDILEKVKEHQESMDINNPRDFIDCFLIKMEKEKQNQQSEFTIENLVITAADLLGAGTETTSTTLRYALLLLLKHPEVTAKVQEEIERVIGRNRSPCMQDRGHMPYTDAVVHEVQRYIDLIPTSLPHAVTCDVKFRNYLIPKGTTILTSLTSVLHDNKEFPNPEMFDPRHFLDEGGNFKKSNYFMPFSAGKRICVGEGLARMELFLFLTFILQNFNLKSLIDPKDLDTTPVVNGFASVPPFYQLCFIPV
Another series has as its target Cytochrome P450 2C9 (Homo sapiens, UniProt P11712).
Another series concerns the target Nonstructural protein 1 (Influenza A virus, UniProt Q194T2). Format: functional, Influenza A virus (A/California/07/2009(H1N1)).
The next series concerns the target T2, Leucine aminopeptidase (Plasmodium falciparum 3D7, UniProt Q8IL11).
T2 sequence (Q8IL11 whole entry): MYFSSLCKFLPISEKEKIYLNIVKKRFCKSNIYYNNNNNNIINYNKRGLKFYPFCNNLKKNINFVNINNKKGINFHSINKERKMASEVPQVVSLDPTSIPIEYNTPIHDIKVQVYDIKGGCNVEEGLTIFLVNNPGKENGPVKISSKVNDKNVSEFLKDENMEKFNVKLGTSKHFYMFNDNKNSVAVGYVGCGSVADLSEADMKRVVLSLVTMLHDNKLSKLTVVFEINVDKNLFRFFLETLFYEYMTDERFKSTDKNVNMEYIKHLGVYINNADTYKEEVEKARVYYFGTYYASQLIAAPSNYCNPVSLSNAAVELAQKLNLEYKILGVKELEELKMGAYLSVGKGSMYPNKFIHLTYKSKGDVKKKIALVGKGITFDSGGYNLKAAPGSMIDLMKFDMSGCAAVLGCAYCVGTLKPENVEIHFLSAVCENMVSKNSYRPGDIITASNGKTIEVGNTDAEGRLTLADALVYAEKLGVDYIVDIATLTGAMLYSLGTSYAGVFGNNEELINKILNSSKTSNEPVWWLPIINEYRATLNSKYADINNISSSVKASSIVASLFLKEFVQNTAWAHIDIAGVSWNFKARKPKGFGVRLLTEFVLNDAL
In words: P. falciparum M17LAP inhibitors, primary screen, biochemical, fluorogenic H-Leu-NHMec substrate, 1536-well (AID 1619). Format: functional.

The target in a further series is Cytochrome P450 2D6 (Homo sapiens, UniProt P10635).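 Also: CYP2D6 member of a cytochrome P450 panel assay.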
Cytochrome P450 2D6, sequence (P10635 whole entry): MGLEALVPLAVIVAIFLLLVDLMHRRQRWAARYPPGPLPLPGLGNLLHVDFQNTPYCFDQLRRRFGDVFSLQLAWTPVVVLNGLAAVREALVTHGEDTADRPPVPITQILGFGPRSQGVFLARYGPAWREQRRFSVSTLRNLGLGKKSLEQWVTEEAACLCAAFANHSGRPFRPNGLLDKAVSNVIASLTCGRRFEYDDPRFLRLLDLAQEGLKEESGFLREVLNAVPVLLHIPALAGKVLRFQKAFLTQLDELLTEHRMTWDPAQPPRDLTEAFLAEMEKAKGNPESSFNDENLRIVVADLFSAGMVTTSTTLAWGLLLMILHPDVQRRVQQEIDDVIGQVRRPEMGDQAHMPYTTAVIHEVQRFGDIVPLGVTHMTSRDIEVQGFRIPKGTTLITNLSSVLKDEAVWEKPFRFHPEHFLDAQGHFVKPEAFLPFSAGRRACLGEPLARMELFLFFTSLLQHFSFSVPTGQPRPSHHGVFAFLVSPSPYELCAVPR

The structures appear in SMILES notation. The source made the active and inactive calls.

Cytochrome P450 2C9, sequence (P11712 whole entry): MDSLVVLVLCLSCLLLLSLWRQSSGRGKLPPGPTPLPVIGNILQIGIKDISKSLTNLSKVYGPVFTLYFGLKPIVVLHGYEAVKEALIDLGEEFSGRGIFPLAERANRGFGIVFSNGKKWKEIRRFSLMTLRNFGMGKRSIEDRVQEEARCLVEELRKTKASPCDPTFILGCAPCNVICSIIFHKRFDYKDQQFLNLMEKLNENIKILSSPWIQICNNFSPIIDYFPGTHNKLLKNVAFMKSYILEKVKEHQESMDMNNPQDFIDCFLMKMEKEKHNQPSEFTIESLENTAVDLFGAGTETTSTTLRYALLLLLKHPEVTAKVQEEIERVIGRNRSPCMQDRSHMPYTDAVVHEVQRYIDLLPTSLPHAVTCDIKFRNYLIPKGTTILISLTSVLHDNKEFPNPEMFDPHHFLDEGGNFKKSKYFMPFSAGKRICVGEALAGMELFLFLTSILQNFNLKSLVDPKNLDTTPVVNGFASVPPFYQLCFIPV
Nonstructural protein 1, sequence (Q194T2 whole entry): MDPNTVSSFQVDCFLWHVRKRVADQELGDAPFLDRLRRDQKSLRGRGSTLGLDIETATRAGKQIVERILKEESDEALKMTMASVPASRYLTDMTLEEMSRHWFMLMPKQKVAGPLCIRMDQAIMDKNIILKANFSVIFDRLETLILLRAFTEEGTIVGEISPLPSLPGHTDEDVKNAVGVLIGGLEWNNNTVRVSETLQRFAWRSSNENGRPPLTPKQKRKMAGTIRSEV
Glyceraldehyde-3-phosphate dehydrogenase, sequence (P04406 whole entry): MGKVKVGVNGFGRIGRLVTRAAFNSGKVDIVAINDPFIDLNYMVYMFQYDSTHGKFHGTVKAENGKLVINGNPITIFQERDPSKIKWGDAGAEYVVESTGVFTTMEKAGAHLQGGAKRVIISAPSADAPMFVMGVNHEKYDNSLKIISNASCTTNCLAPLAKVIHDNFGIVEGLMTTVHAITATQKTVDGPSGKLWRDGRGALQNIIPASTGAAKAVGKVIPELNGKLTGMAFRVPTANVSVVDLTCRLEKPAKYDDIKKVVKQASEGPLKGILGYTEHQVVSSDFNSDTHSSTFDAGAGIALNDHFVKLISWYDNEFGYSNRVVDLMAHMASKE

Turning to `Cc1cc(C(=O)OCC(=O)NCc2ccco2)c(C)n1-c1ccc(F)cc1`, the EC50 in the series with BJ [1] is 4.61 µM (active); in [2], > 120 µM (not active); in the series with BJ [3] it was 36 µM (active); in the series with BJ [4], 9.71 µM (inconclusive); in series [5], 9.52 µM (active); in series [6], 4.93 µM (active). Besides, in [7], the 50% effective concentration (EC50) is 16.7 µM (active).
`Cc1ccc(NC2=NC(=O)/C(=C/c3ccc(O)c([N+](=O)[O-])c3)S2)cc1Cl`: the IC50 in series [8] is > 100 µM (not active).
As for `CC(=O)Nc1n[nH]c(SCc2ccc(Br)cc2)n1`, the figures for the half-maximal inhibitory concentration (IC50) in [8] and in [9] were > 100 µM (not active) and > 100 µM (inactive), respectively.
As to `CCOC(=O)c1cc(-c2ccc3c(c2)OCCO3)n[nH]1`, in [10], the EC50 was 0.345 µM (active). For the same compound, the IC50 in series [8] was > 100 µM (not active); in series [9], 6.04 µM (active).
`CCCNc1nc(NCC)nc(OC)n1`: the results for the AC50 on Cytochrome P450 2C19 and on Cytochrome P450 2C9 were 17.8 µM (inconclusive) and “inconclusive”, respectively.
For `O=[N+]([O-])c1ccc(N2CCOCC2)cc1NC(c1ccccc1)c1ccccc1`, the IC50 at Nonstructural protein 1 is > 100 µM (active).
The same measure, in the same setting: the same measure for `CC1CCN(C2=C(NS(=O)(=O)c3ccc(Br)cc3)C(=O)c3ccccc3C2=O)CC1`: 10.8 µM (active); for `c1ccc(COc2nsnc2N2CCOCC2)cc1`: > 100 µM (active).
Consider `COC(=O)c1cc(-c2ccc(C)cc2C)n[nH]1`, for which the concentration for half-maximal inhibition (IC50) in series [8] was > 100 µM (not active); in series [9] it was 1.62 µM (active).
With `Cc1ccc(/C=c2/sc3nnc(-c4ccccc4Cl)n3c2=O)o1`, at Leucine aminopeptidase, the IC50 is 28.7 µM (active).
Same read-out and setting: the same measure for `CCc1c(O)nc(SCC(=O)Nc2ccc3c(c2)CCC3)nc1O`: 8.08 µM (active).
For the compound `COc1ccccc1NC(=O)CN1CCC(C(=O)c2ccc(F)cc2)CC1`, the AC50 entry is “inconclusive” on Cytochrome P450 2C9 and 25.1 µM (inconclusive) at Cytochrome P450 2D6.
In the case of `Cn1c(=O)c2c(nc(NN/C=C3/C(=O)NC(=S)N(c4ccccc4)C3=O)n2C)n(C)c1=O`, at Nonstructural protein 1, the IC50 was 20.9 µM (active).
As for `CCOC(=O)CC(=O)CSc1nc(O)c2sc(=S)n(-c3ccccc3)c2n1`, the IC50 at Leucine aminopeptidase is 40.6 µM (active).
As for `C=CCc1cccc2cc(C(=O)N(CC)CC)c(=O)oc12`, the figures for the half-maximal activity concentration (AC50) at Cytochrome P450 2C19 and at Cytochrome P450 2C9 were 28.2 µM (inconclusive) and “inconclusive”, respectively.
As for `COc1ccc(Cc2nnc(N3C(=O)[C@H]4CC=CC[C@H]4C3=O)[nH]2)cc1`, the values for the IC50 in series [8] and in series [9] were > 100 µM (not active) and 96 µM (active), respectively.
Take `CN1CCN(c2ccc([N+](=O)[O-])cc2C(=O)c2ccc(Br)cc2)CC1`: the EC50 is 5.07 µM (inconclusive) with BJ [1]; 11.6 µM (active) in series [2]; 28.9 µM (active) in the series with BJ [3]; 4.96 µM (active) in the series with BJ [4]; 12.6 µM (active) in [5]; 4.21 µM (active) in series [6]. For the same compound, the EC50 in series [7] is 4.11 µM (active).
Take `COc1ccc(Br)cc1S(=O)(=O)Nc1ccc2ccccc2c1`: the half-inhibitory concentration (IC50) in series [8] was > 10 µM (inconclusive); in [9], > 10 µM (inactive).
In the case of `CCCCCCCCCCCCCCCCCC(=O)O[C@H](CC(=O)O)C[N+](C)(C)C`, on Cytochrome P450 2C9, the AC50 entry is “inconclusive”.
With `NC(=O)C1CCN(c2oc(-c3ccccc3)nc2S(=O)(=O)c2ccc(Br)cc2)CC1`, the IC50 at Nonstructural protein 1 was > 100 µM (active).
Take `CCSc1nnc(NC(=O)C2CCCCC2C(=O)OCC(F)(F)C(F)F)s1` (stereo not drawn): the IC50 on Leucine aminopeptidase was 76.8 µM (active).
Take `Cc1nnc(SCC(=O)Nc2cccc(C(F)(F)F)c2)[nH]c1=O`: the IC50 at Leucine aminopeptidase was 15.1 µM (active).

The record behind these values is ChEMBL document CHEMBL1201862, “PubChem BioAssay data set” (2004).
